tested on: Collagen1 gene expression (COL1A1) in WS1 cells; assay: Collagen1 (COL1A1) gene expression by real time PCR in WS1 human dermal fibroblasts; assay type: cell-based; conditions: Table 1, 24 hours treatment, actives in wt %, fold change vs untreated control (1.0), normalized to GAPDH, delta delta Ct
Procedure: Experiments were carried out to study gene expression of Collagen1 with actives as shown in Table-1 individually and in combination and the data is 12ummarized therein. The methodology used to measure the gene expression is given below:
WS1 cells (human dermal fibroblasts) were grown and maintained in high glucose DMEM (HIMEDIA cat No AL219A) supplemented with 0.03 mM Calcium chloride, 1 mM sodium pyruvate and 10% FBS (Fetal Bovine Serum) at 37° C. with 5% CO2. 80% confluent cells were trypsinized and plated in 24 well plate at a density of 50,000 cells/well. The cells were incubated at 37° C. with 5% CO2 for 24 hours. Post incubation, the cells were treated with arginine (0.005%) and varying concentration of pimelic acid, dimethyl pimelate, suberic acid. Azelaic acid (0.0001, 0.001, 0.005%). 24 hours after treatment the cells were harvested for RNA extraction. RNA was extracted using Qiagen RNA extraction kit (Cat No: 74004) as per the instructions given in the kit. After extraction of RNA, cDNA synthesis was done using iscript cDNA synthesis kit (Biorad Cat no: 1708890). […] of RNA was used for cDNA synthesis. cDNA template synthesized was used for gene expression studies.
Quantification of collagen gene expression was carried out using real time PCR. […] of cDNA was used for setting up the reaction. The PCR reaction mix had […] each of forward and reverse primer, […] of PCR master mix (Sigma Cat No: KCQS00). Amplification was carried out at 95° C. for 30 seconds as the first step, followed by 40 cycles of qRT-PCR at 95° C. for 5 seconds, and at 60° C. for 20 seconds. mRNA expression was measured in triplicate and was normalized to GAPDH (glyceraldehyde 3-phosphate dehydrogenase) expression levels. The relative quantification was done using delta delta Ct method. The primers used in the study are COL1A1 forward primer 5′-[…]-3′, COL1A1 reverse primer 5′-[…]-3′, GAPDH forward primer 5′-[…]-3′, reverse primer 5′-[…]-3′. The relative quantification of gene expression was done after normalization using house keeping gene (GAPDH) and comparing with untreated control.
The fold change of gene ‘expression obtaine’ from cells treated with’ combination of test actives were compared with the gene expression obtained from cells treated with individual ingredients.

Row | SMILES | Gene expression (Collagen1)
1 | COC(=O)CCCCCC(=O)OC [Example C1, Dimethyl pimelate] | 1.2
2 | O=C(O)CCCCCC(=O)O [Example B2, Pimelic acid] | 2.8
3 | COC(=O)CCCCCC(=O)OC [Example C2, Dimethyl pimelate] | 2.5
4 | O=C(O)CCCCCC(=O)O [Example B1, Pimelic acid] | 1.1
5 | O=C(O)CCCCCCC(=O)O [Example D2, Suberic acid] | 2.9
6 | O=C(O)CCCCCCC(=O)O [Example D1, Suberic acid] | 1.6
7 | O=C(O)CCCCCC(=O)O [Example B3, Pimelic acid] | 3.2
8 | O=C(O)CCCCCCCC(=O)O [Example E2, Azeleic acid] | 1.6
9 | O=C(O)CCCCCCC(=O)O [Example D3, Suberic acid] | 1.3
10 | N=C(N)NCCCC(N)C(=O)O (centres unmarked) [Example A, Arginine] | 1.9
11 | O=C(O)CCCCCCCC(=O)O [Example E3, Azeleic acid] | 1.9
12 | COC(=O)CCCCCC(=O)OC [Example C3, Dimethyl pimelate] | 3.8
13 | O=C(O)CCCCCCCC(=O)O [Example E1, Azeleic acid] | 1.4

tested on: Collagen1 gene expression (COL1A1) in WS1 cells; assay: as above; assay type: cell-based; conditions: Table 2 (lysine series), 24 hours treatment, actives in wt %, fold change vs untreated control (1.0), normalized to GAPDH

Row | SMILES | Gene expression (Collagen1)
14 | COC(=O)CCCCCC(=O)OC [Example H3, Dimethyl pimelate] | 3.7
15 | O=C(O)CCCCCC(=O)O [Example G1, Pimelic acid] | 1.1
16 | O=C(O)CCCCCC(=O)O [Example G3, Pimelic acid] | 3.0
17 | O=C(O)CCCCCCC(=O)O [Example J2, Suberic acid] | 2.8
18 | O=C(O)CCCCCCCC(=O)O [Example K1, Azeleic acid] | 1.3
19 | COC(=O)CCCCCC(=O)OC [Example H2, Dimethyl pimelate] | 2.4
20 | NCCCC[C@H](N)C(=O)O [F, Lysine] | 0.8
21 | O=C(O)CCCCCCCC(=O)O [Example K3, Azeleic acid] | 2.0
22 | COC(=O)CCCCCC(=O)OC [Example H1, Dimethyl pimelate] | 1.2
23 | O=C(O)CCCCCCC(=O)O [Example J3, Suberic acid] | 1.4
24 | O=C(O)CCCCCC(=O)O [Example G2, Pimelic acid] | 2.4
25 | O=C(O)CCCCCCCC(=O)O [Example K2, Azeleic acid] | 1.6
26 | O=C(O)CCCCCCC(=O)O [Example J1, Suberic acid] | 1.7

same assay, conditions: Table 3 (additional weight ratios 2:1, 4:1, 25:1), 24 hours treatment, actives in wt %, fold change vs untreated control (1.0), normalized to GAPDH

Row | SMILES | Gene expression (Collagen1)
27 | O=C(O)CCCCCC(=O)O [Example M1, Pimelic acid] | 3.0
28 | O=C(O)CCCCCC(=O)O [Example M2, Pimelic acid] | 3.9
29 | O=C(O)CCCCCCCC(=O)O [Example P1, Azelaic acid] | 1.7
30 | O=C(O)CCCCCC(=O)O [Example M3, Pimelic acid] | 2.7
31 | N=C(N)NCCCC(N)C(=O)O (centres unmarked) [Example L2, Arginine] | 3.3
32 | COC(=O)CCCCCC(=O)OC [Example N3, Dimethyl pimelate] | 2.5
33 | O=C(O)CCCCCCCC(=O)O [Example P3, Azelaic acid] | 1.6
34 | O=C(O)CCCCCCC(=O)O [Example O1, Suberic acid] | 2.7
35 | COC(=O)CCCCCC(=O)OC [Example N2, Dimethyl pimelate] | 3.5
36 | N=C(N)NCCCC(N)C(=O)O (centres unmarked) [Example L3, Arginine] | 4.4
37 | COC(=O)CCCCCC(=O)OC [Example N1, Dimethyl pimelate] | 2.2
38 | O=C(O)CCCCCCC(=O)O [Example O3, Suberic acid] | 2.5
39 | O=C(O)CCCCCCC(=O)O [Example O2, Suberic acid] | 3.7
40 | N=C(N)NCCCC(N)C(=O)O (centres unmarked) [Example L1, Arginine] | 1.5
41 | O=C(O)CCCCCCCC(=O)O [Example P2, Azelaic acid] | 2.4

From patent publication US20260224460A1, “A PERSONAL CARE COMPOSITION” (Conopco, Inc., d/b/a UNILEVER, priority 2023, published 2026)
